Key:
[1] = daily oral dose of 40 mg in women; cited from earlier work
[2] = test system: E2-stimulated AP activity in ECC-1 cells; experiment: Inhibition of E2-stimulated AP activity in ECC-1 cells (antagonist mode); format: cell-based, human; details: in the presence of 500 pM E2
Text: FIG. 2. Alkaline phosphatase (AP) activity in ECC-1 cells correlates with the uterine wet weight of ovariectomized rats, as reported previously in Scafonas, et al. (*; Scafonas et al. “Agonist-like SERM effects on ER alpha-mediated repression of MMPI promoter activity predict in vivo effects on bone and uterus. J Steroid Biochem Mol. Biol. 2008 110(3-5):197-206) and Labrie, et al. (†; Labrie et al. “The combination of a novel selective estrogen receptor modulator with an estrogen protects the mammary gland and uterus in a rodent model: the future of postmenopausal women's health?” Endocrinology. 2003 144(11):4700-6). ECC-1 cells were treated with 500 pM 17β-estradiol (E2) or 1-5 nM anti-estrogens in hormone-depleted medium for 3 days. Note that the racemic mixture of acolbifene, EM-343, was used in the in vitro AP assay. AP activity was measured by incubating a chromogenic AP substrate, p-nitrophenyl phosphate, at 40° C. for 40 minutes followed by measuring the absorbance at 405 nm. Results were from a single representative experiment and reported as the mean percent induction relative to E2 from triplicate treatments, with error bars representing SEM.
FIG. 6. […] A) Comparison of inhibition of E2-stimulated AP activity of various benzopyran compounds (right) compared to published reference compounds (left). ECC-1 cells were treated with 100 nM anti-estrogens in the presence of 500 pM E2 and AP activity was measured as described in FIG. 2. Note that OP-1038 was statistically different from EM-343 and Gauthier compound Ia (p<0.0001 (exact p values stated in graph), calculated using Student's t-test). Results were from a single representative experiment and reported as the mean percent induction relative to E2 from triplicate treatments, with error bars representing SEM. […] IC50's were calculated using the least squares fit method. *Aragon Compound 28 was statistically different from equivalent dose of OP-1038 (p≦0.01, calculated using Student's t-test). […]
Method for performing the alkaline phosphatase (AP) assay. […] Absorbance was read at 405 nm using a plate spectophotometer. […]

[3] = test system: E2-stimulated estrogen response element (ERE)-regulated reporter gene activity; experiment: ERE-tk109-Luc reporter gene assay in MCF-7 cells; format: cell-based, human; details: 100 pM E2, 18-22 hours
Method: (§1) FIG. 10. […] A) OP-1074 had similar potency to model anti-estrogens in the ERE reporter gene assay. MCF-7 cells were transiently transfected with ERE-tk109-Luc and treated with anti-estrogens in hormone-depleted medium in the presence of 100 pM E2 for 22 hours. Results were from a single representative experiment and reported as the mean percent induction relative to E2 from triplicate treatments, with error bars representing SEM. […] Results were from a single representative experiment and reported as the mean percent induction relative to E2 from triplicate treatments, with error bars representing SEM. IC50's were calculated using the least squares fit method.
Compounds of invention are tested for their inhibitory activity of estrogen according to the assay methods described in Hodges-Gallagher, L., Valentine, C. V., El Bader, S. and Kushner, P. J. (2007) “Histone Deacetylase Inhibitors Enhance the Efficacy of Hormonal Therapy Agents on Breast Cancer Cells and Blocks Anti-estrogen-Driven Uterine Cell Proliferation” Breast Cancer Res Treat, November; 105(3):297-309. Specifically, an estrogen-responsive reporter gene (ERE-tk109-Luc) was transiently transfected into MCF-7 cells and treated with anti-estrogens in triplicate in the presence of 100 pM 17β-estradiol (E2) for 18-22 hours. Luciferase activity was normalized to activity of E2 alone and IC50's were calculated using the least squares fit method. This method is also described in legend for FIG. 10.

[4] = test system: human MCF-7 breast cancer cells; experiment: E2-stimulated proliferation of MCF-7 breast cancer cells; format: cell-based; details: MCF-7 cells, 100 pM E2, 6-8 days
Method: as §1, with “11.” for “10.”, “inhibiting E2-stimulated proliferation of breast cells in vitro.” for “the ERE reporter gene assay.”, “were” for “were transiently transfected with ERE-tk109-Luc and”, “medium for 6-8 days” for “medium”, “E2. Proliferation was measured using Cyquant fluorescent DNA-binding dye (Invitrogen, Grand Island, N.Y.).” for “E2 for 22 hours.”
Proliferation in MCF-7 was measured using a fluorescent DNA binding dye 6-8 days after treatment in triplicate with anti-estrogens in the presence of 100 pM E2 and as described in the legend to, and depicted in FIG. 11.

[5] = biological target: T1, estrogen receptor alpha (ERα) (Homo sapiens, UniProt P03372); experiment: ERα expression by immunoblot after anti-estrogen treatment; format: cell-based; details: 100 nM anti-estrogen, 22-24 hours, serum-free medium; MCF-7 breast cells and ECC-1 endometrial cells
T1 construct: endogenous in cells
T1 sequence (P03372 1-595): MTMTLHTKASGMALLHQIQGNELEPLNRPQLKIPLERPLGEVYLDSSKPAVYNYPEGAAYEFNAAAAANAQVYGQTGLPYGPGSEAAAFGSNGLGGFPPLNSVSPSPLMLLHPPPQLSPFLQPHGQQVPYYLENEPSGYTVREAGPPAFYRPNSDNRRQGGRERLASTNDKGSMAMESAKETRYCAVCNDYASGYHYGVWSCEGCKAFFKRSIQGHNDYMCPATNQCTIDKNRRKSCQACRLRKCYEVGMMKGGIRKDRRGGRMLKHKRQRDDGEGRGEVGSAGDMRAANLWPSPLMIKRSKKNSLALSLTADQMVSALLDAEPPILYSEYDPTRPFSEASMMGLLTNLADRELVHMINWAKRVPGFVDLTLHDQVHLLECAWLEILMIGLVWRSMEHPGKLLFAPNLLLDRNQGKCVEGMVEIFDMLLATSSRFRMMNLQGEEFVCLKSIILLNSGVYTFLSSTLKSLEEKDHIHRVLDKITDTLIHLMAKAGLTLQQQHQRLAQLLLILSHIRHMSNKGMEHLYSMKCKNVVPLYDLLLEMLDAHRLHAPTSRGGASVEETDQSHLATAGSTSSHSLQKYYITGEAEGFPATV
Method: FIG. 12. […] A) ERα levels in breast cells after treatment with OP-1074 compared to treatment with model anti-estrogens. MCF-7 cells were treated with 100 nM anti-estrogen for 24 hours in serum-free medium and protein extracts immunoblotted with an antibody to ERα (D12, Santa Cruz Biotechnology, Santa Cruz, Calif.). Image is from a single representative experiment and number on top denotes the mean percent ERα expression relative to vehicle from quadruplicate treatments. B) OP-1038 induces degradation of ERα in both MCF-7 breast cells and ECC-1 endometrial cells.
ERα expression was detected in MCF-7 cell lysates treated with 100 nM anti-estrogens in serum-free medium for 22-24 hours and immunoblotted with an antibody specific to ERα as described in the legend to, and depicted in FIG. 12.

[6] = test system: rodent uterus, human uterine cells; details: cited from earlier work

In the case of `CC1=C(c2ccc(OC(=O)C(C)(C)C)cc2)[C@H](c2ccc(OCCN3CCCCC3)cc2)Oc2cc(OC(=O)C(C)(C)C)ccc21` [EM800], the “Mean drug exposure of circulating acolbifene” value [1] is given as 15 ng/mL.
For `CC1=C(c2ccc(O)cc2)[C@H](c2ccc(OCCN3CCCCC3)cc2)Oc2cc(O)ccc21` [EM-652, (S)-3-(4-hydroxyphenyl)-4-methyl-2-(4-(2-(piperidin-1-yl)ethoxy)phenyl)-2H-chromen-7-ol], the “Mean drug exposure of circulating acolbifene” value [1] is listed as 8.3 ng/mL.
With `CC1=C(c2ccc(O)cc2)[C@@H](c2ccc(OCCN3CC[C@@H](C)C3)cc2)Oc2cc(O)ccc21` [OP-1075, (2R)-3-(4-hydroxyphenyl)-4-methyl-2-(4-{2-[(3R)-3-methylpyrrolidin-1-yl]ethoxy}phenyl)-2H-chromen-7-ol] the “Inhibition of E2-stimulated AP activity” value [2] was “reduced activity”, the “Antagonism of E2-stimulated ERE-regulated reporter gene activity” value [3] was “reduced activity” and the “Antagonism of E2-stimulated proliferation” value [4] was “reduced activity”. For the same compound, the “Degradation of ERα” value [5] was “degrade the receptor”.
In the case of `CC12CCC3c4ccc(O)cc4CC(CCCCCCCCC[S+]([O-])CCCC(F)(F)C(F)(F)F)C3C1CCC2O` (stereo not shown) [fulvestrant], the “Residual estrogen-like action relative to estradiol” value [6] is given as “almost unmeasurable”.
